# Results published in patent publication US20050228016A1, “TETRAHYDROQUINOLINES FOR MODULATING THE EXPRESSION OF EXOGENOUS GENES VIA AN ECDYSONE RECEPTOR COMPLEX” (priority 2002, published 2005).
# Columns and labels:
# CfEcR + LmUSP = CfEcR + LmUSP in 3T3 cells, reporter assayed 48 h after ligand
# Protocol: 1.9—Gal4CfEcR-DEF/VP16LmRXR-EF: This construct was prepared in the same way as switch 1.1 except LmRXR-EF (SEQ ID NO: 18) was used in place of HsRXRβ-LmRXREF chimera.
# (§3) To determine if any of the compounds shown in Table 1 and Table 2 can act as inducers of reporter gene activity in a transactivation assay, these compounds were tested in NIH3T3 cells transfected with pFRLUC reporter and gene expression cassettes, 1.1 to 1.8 described in Example 1. […] At 48 hr after adding ligand, the cells were harvested and reporter activity was assayed using Dual Luciferase assay kit (Promega carporation). Total relative light units (RLU) are shown. Standard methods for culture and maintenance of the cells were followed.
# (§4) Transfections: DNAs corresponding to the various switch constructs outlined in Example I, specifically switches 1.1 through 1.8, were transfected into mouse NIH3T3 cells (ATCC) as follows. Cells were harvested when they reached 50% confluency and plated in 6-, 12- or 24-well plates at 125,000, 50,000, or 25,000 cells, respectively, in 2.5, 1.0, or 0.5 ml of growth medium containing 10% fetal bovine serum (FBS), respectively. The next day, the cells were rinsed with growth medium and transfected for four hours. […] For 12-well plates, 4 μl of Superfect™ was mixed with 100 μl of growth medium. 1.0 μg of reporter construct and 0.25 μg of each receptor construct of the receptor pair to be analyzed were added to the transfection mix. A second reporter construct was added [pTKRL (Promega), 0.1 μg/transfection mix] that comprises a Renilla luciferase gene operably linked and placed under the control of a thymidine kinase (TK) constitutive promoter and was used for normalization. The contents of the transfection mix were mixed in a vortex mixer and let stand at room temperature for 30 min. At the end of incubation, the transfection mix was added to the cells maintained in 400 μl growth medium. The cells were maintained at 37° C. and 5% CO2 for four hours. At the end of incubation, 500 μl of growth medium containing 20% FBS and either dimethylsulfoxide (DMSO; control) or a DMSO solution of 0.1, 1, and 10 μM ligand was added and the cells were maintained at 37° C. and 5% CO2 for 48 hours. The cells were harvested and reporter activity was assayed. The same procedure was followed for 6 and 24 well plates as well except all the reagents were doubled for 6 well plates and reduced to half for 24-well plates.
# (§5) Ligands: All ligands were dissolved in DMSO and the final concentration of DMSO was maintained at 0.1% in both controls and treatments.
# (§6) Reporter Assays: Cells were harvested 48 hours after adding ligands. 125, 250, or 500 μl of passive lysis buffer (part of Dual-luciferase™ reporter assay system from Promega Corporation) were added to each well of 24- or 12- or 6-well plates respectively. The plates were placed on a rotary shaker for 15 minutes. Twenty μl of lysate were assayed. Luciferase activity was measured using Dual-luciferase™ reporter assay system from Promega Corporation following the manufacturer's instructions.
# Gal4DBD/AaEcR (DEF) = target: T1, Gal4DBD/AaEcR (DEF) (Aedes aegypti, UniProt P49880); test: cell-based; type: cell-based; conditions: 33 μM; 3T3 cells; 48 h; average of two wells
# T1 construct: The wildtype D, E, and F domains from mosquito Aedes aegypti EcR; expressed in transfected cells; host or cells: 3T3 cells
# Summary of the method: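 Single-dose ligand testing at 33 μM, applied in serum medium after 4 h transfection. Host was 3T3 cells carrying Gal4DBD/AaEcR (DEF) plus a 5× GAL4 RE-driven firefly luciferase reporter (pFRLuc).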
# DmEcR + LmUSP = target: T2, DmEcR + LmUSP (Drosophila melanogaster, UniProt P34021); conditions: DmEcR + LmUSP in 3T3 cells, reporter assayed 48 h after ligand
# T2 sequence (P34021 342-878): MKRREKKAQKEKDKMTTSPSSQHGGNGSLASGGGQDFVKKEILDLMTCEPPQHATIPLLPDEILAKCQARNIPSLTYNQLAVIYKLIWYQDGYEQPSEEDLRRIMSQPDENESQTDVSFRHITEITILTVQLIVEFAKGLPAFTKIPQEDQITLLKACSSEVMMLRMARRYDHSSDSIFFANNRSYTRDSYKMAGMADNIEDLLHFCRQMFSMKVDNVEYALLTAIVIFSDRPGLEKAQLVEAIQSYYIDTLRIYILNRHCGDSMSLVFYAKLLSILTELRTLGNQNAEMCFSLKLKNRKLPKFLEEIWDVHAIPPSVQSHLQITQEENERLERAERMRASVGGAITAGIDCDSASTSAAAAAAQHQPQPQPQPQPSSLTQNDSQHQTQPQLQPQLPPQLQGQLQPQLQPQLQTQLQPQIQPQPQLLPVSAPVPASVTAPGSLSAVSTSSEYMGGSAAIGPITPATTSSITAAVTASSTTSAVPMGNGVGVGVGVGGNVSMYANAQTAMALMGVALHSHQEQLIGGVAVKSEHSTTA
# Protocol: as §3, §4, §5, §6
# [1] = target: T3, Bombyx mori EcR (VP16-BmEcR, CVBE) (Bombyx mori, UniProt P49881); test: Z3 assay (HEK-293 clone Z3 with CVBE and 6x EcRE LacZ, β-galactosidase reporter); type: cell-based; conditions: 48 h, average of two wells
# T3 construct: expressed in transfected cells
# T3 sequence (P49881 86-606): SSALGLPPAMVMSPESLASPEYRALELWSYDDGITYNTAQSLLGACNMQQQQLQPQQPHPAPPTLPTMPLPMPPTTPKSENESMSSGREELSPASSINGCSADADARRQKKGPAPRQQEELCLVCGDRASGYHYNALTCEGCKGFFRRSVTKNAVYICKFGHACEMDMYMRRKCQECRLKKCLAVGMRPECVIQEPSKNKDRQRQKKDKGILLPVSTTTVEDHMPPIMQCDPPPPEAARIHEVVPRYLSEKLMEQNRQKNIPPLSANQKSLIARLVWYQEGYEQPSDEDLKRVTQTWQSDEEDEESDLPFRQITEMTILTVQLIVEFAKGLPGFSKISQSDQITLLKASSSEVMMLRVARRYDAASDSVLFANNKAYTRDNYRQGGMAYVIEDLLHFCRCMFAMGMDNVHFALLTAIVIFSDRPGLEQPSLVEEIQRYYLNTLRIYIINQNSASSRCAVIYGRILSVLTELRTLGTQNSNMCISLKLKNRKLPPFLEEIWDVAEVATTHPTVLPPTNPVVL
# [2] = system: GAL4 DBD (1-147)-CfEcR(DEF)/VP16AD-βRXREF-LmUSPEF; conditions: CHO 27-63 clone, 48 h, average of two wells
# Text: GAL4 DBD (1-147)-CfEcR(DEF)/VP16AD-βRXREF-LmUSPEF: The wild-type D, E, and F domains from spruce budworm Choristoneura fumiferana EcR (“CfEcR-DEF”; SEQ ID NO: 1) were fused to a GAL4 DNA binding domain (“Gal4DBD1-147”; nucleotides 31 to 471 of SEQ ID NO: 2) and placed under the control of a phosphoglycerate kinase promoter (“PGK”; SEQ ID NO: 19). Helices 1 through 8 of the EF domains from Homo sapiens RXRβ and helices 9 through 12 of the EF domains of Locusta migratoria Ultraspiracle Protein (“HsRXRβ-EF-LmUSP-EF”; SEQ ID NO: 4) were fused to the transactivation domain from VP16 (“VP16AD”; SEQ ID NO: 5) and placed under the control of an elongation factor-1α promoter (“EF-1α”; SEQ ID NO: 20). Five consensus GAL4 response element binding sites (“5× GAL4RE”; comprising 5 copies of a GAL4RE comprising SEQ ID NO: 7) were fused to a synthetic TATA minimal promoter (SEQ ID NO: 21) and placed upstream of the luciferase reporter gene (SEQ ID NO: 9).
# CHO cells were transiently transfected with transcription cassettes for GAL4 DBD (1-147) CfEcR(DEF) and for VP16AD βRXREF-LmUSPEF controlled by ubiquitously active cellular promoters (PGK and EF-1α, respectively) on a single plasmid. Stably transfected cells were selected by Zeocin resistance. Individually isolated CHO cell clones were transiently transfected with a GAL4 RE-luciferase reporter (pFR Luc). 27-63 clone was selected using Hygromycin.
# Cells were trypsinized and diluted to a concentration of 2.5×10^4 cells mL. 100 μL of cell suspension was placed in each well of a 96 well plate and incubated at 37° C. under 5% CO2 for 24 h. Ligand stock solutions were prepared in DMSO and diluted 300 fold for all treatments. Dose response testing consisted of 8 concentrations ranging from 33 μM to 0.01 μM.
# (§1) Luciferase reporter gene expression was measured 48 h after cell treatment using Bright-Glo™ Luciferase Assay System from Promega (E2650). Luminescence was detected at room temperature using a Dynex MLX microtiter plate luminometer.
# (§2) Each assay was conducted in two separate wells, and the two values were averaged. Fold inductions were calculated by dividing relative light units (“RLU”) in ligand treated cells with RLU in DMSO treated cells.
# [3] = system: GAL4 DBD-CfEcR(DEF)/VP16AD-MmRXRE; conditions: CHO 13B3 clone, 48 h, average of two wells
# Text: GAL4 DBD-CfEcR(DEF)/VP16AD-MmRXRE: The wild-type D, E, and F domains from spruce budworm Choristoneura fumiferana EcR (“CfEcR-DEF”; SEQ ID NO: 1) were fused to a GAL4 DNA binding domain (“Gal4DBD1-147”; nucleotides 31 to 471 of SEQ ID NO: 2) and placed under the control of the SV40e promoter of pM vector (PT3119-5, Clontech, Palo Alto, Calif.). The D and E domains from Mus Musculus RXR (“MmRXR-DE”; SEQ ID NO: 22) were fused to the transactivation domain from VP16 (“VP16AD”; SEQ ID NO: 5) and placed under the control of the SV40e promoter of the pVP16 vector (PT3127-5, Clontech, Palo Alto, Calif.).
# CHO cells were transiently transfected with transcription cassettes for GAL4 DBD-CfEcR(DEF) and for VP16AD-MmRXRE controlled by SV40e promoters. Stably transfected cells were selected using Hygromycin. Individually isolated CHO cell clones were transiently transfected with a GAL4 RE-luciferase reporter (pFR-Luc, Stratagene, La Jolla, Calif.). The 13B3 clone was selected using Zeocin.
# Cells were trypsinized and diluted to a concentration of 2.5×10^4 cells mL. 100 μL of cell suspension was placed in each well of a 96 well plate and incubated at 37° C. under 5% CO2 for 24 h. Ligand stock solutions were prepared in DMSO and diluted 300 fold for all treatments.
# as §1, §2
# T1 sequence (P28704 286-520 A311G/G315S/G445S/I449V): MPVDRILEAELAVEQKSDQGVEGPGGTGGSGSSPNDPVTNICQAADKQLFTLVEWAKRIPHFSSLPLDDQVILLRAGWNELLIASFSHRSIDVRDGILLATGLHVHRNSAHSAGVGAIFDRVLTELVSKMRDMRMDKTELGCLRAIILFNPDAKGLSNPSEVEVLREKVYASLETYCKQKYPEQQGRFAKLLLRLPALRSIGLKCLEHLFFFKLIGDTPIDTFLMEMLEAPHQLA
# T1 sequence (P49880 405-776): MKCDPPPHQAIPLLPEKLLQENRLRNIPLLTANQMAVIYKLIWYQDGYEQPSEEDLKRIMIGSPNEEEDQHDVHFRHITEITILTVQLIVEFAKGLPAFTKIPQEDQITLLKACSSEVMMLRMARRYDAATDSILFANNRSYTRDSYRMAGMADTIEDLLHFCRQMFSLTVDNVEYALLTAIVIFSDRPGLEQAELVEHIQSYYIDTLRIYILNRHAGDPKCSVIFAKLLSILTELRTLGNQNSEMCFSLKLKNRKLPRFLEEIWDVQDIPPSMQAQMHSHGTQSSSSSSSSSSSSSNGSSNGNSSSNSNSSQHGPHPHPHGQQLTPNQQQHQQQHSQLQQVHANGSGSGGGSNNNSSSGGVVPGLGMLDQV
Structure (SMILES),Fold Induction (10 μM) (CfEcR + LmUSP),"Fold Induction Average, AA_3T3V1 Assay 33 μM (Gal4DBD/AaEcR (DEF))",Fold Induction (10 μM) (DmEcR + LmUSP),Fold Induction (100 μM) (DmEcR + LmUSP),"Fold Induction Average, Z3V1 Assay 33 μM [1]","Fold Induction Average, 27-63V1 Assay 33 μM [2]","Fold Induction Average, 13B3V1 Assay 33 μM [3]"
C[C@H]1C[C@@H](Nc2ccc(F)cc2)c2cc(F)ccc2N1C(=O)c1ccc(F)cc1 (relative stereo) [Compound I-8],3 fold,153 fold,2 fold,7 fold,–,–,–
C[C@H]1C[C@H](Nc2ccc(F)cc2)c2cc(F)ccc2N1C(=O)c1ccc(F)cc1 (relative stereo) [Compound I-9],3 fold,131 fold,9 fold,2 fold,16 fold,–,–
C[C@H]1C[C@@H](Nc2ccc(F)cc2)c2cc(F)ccc2N1C(=O)c1ccccc1 (relative stereo) [Compound I-10],1 fold,164 fold,1 fold,1 fold,–,–,–
C[C@H]1C[C@H](Nc2ccc(F)cc2)c2cc(F)ccc2N1C(=O)c1ccccc1 (relative stereo) [Compound I-11],1 fold,387 fold,5 fold,3 fold,32 fold,–,–
COc1cccc(C(=O)N2c3ccc(C)cc3[C@@H](Nc3ccc(C)cc3)C[C@@H]2C)c1 (relative stereo) [Compound I-86],–,2 fold,–,–,1 fold,1 fold,–
COC(=O)c1ccc(C(=O)N2c3ccc(F)cc3C(Nc3ccc(F)cc3)CC2C)cc1 (stereo not shown) [Compound I-94],–,798 fold,–,–,48 fold,32 fold,–
CC1CC(Nc2ccccc2)c2ccccc2N1C(=O)c1cccc(Br)c1 (stereo not shown) [Compound I-148],–,47 fold,–,–,19 fold,–,1 fold
Cc1ccc(NC2CC(C)N(C(=O)c3cccc([N+](=O)[O-])c3)c3ccc(C)cc32)cc1 (stereo not shown) [Compound I-154],–,1 fold,–,–,1 fold,–,4 fold
CC1CC(N(C(=O)C2CC2)c2ccccc2)c2ccccc2N1C(=O)C1CC1 (stereo not shown) [Compound I-155],–,1 fold,–,–,1 fold,–,1 fold
CC1CC(Nc2ccccc2)c2ccccc2N1C(=O)c1cccc([N+](=O)[O-])c1 (stereo not shown) [Compound I-158],–,207 fold,–,–,18 fold,–,118 fold
CC1CC(Nc2ccccc2)c2ccccc2N1C(=O)C=Cc1ccccc1 (stereo not shown) [Compound I-163],–,4 fold,–,–,27 fold,–,26 fold
CC1CC(N(C(=O)c2cccc(Br)c2)c2ccccc2)c2ccccc2N1C(=O)c1cccc(O)c1 (stereo not shown) [Compound I-166],–,58 fold,–,–,1 fold,–,2 fold
CCCc1ccc(C(=O)N2c3ccccc3C(Nc3ccccc3)CC2C)cc1 (stereo not shown) [Compound I-173],–,172 fold,–,–,3 fold,–,1 fold
CC1CC(Nc2ccccc2)c2ccccc2N1C(=O)COc1ccc(Cl)cc1 (stereo not shown) [Compound I-180],–,9 fold,–,–,1 fold,–,1 fold
Cc1ccccc1NC1CC(C)N(C(=O)c2ccccc2)c2c(C)cccc21 (stereo not shown) [Compound I-184],–,1 fold,–,–,–,1 fold,–
CCNC(=O)N1c2ccccc2C(Nc2ccccc2)CC1C (stereo not shown) [Compound I-210],–,12 fold,–,–,–,1 fold,–
